As usually defined, the IC50 is the midpoint of a concentration-inhibition curve. The inhibition is the change of the read-out against control, counted positive when it falls.

This experiment concerns the target T1, IGF1-receptor kinase (Homo sapiens, UniProt P08069).
T1 construct: Purified GST-IGFR; purified Bis-IGFR and Tris-IGFR; fused on or other part: GST with a thrombin cleavage site, removed in the Bis-IGFR and Tris-IGFR forms
Nature of the experiment: IGF1-R kinase assay (96-well FRET Lance). The experiment is classed as biochemical. Particulars: for IC50: 100 micromolar ATP, read-out: Igfr ic50; for inhibition at 10 µM: 10 uM compound, read-out: Igfr % Inhibition at 10 uM. The source says:
• TITLE: 96-well assay for inhibitors of IGF1-receptor kinase activity • SHORT TITLE: IGF1-R kinase assay • PURPOSE: Identify inhibitors of IGF-1 receptor kinase activity • MATERIALS AND METHODS: Overview: This is a 96-well FRET (Lance) tyrosine kinase assay. • Materials: • Purified GST-IGFR; purified Bis-IGFR and Tris-IGFR; expressed in ExpresSF insect cells. Bis and Tris IGFR are made by phosphorylating the IGFR in the presence of ATP and Mg2+, followed by thrombin cleavage to remove the GST-thrombin cleavage site, and purification by HPLC. The Bis and tris IGFR are phosphorylated on two (bis) or all three tyrosines (tris) in the activation loop. • Biotinylated peptide with a sequence corresponding to the sequence surrounding the autophosphorylation sites in IGF1-R Biotin-NH2-[…]-OH (Anaspec) • Europium-conjugated phosphotyrosine antibody (PT66) (Perkin-Elmer). • Surelight APC (Perkin-elmer) • Plates: 96-well Assay plates (polypropylene plates, natural color) • 96-well-Lance plates (Microfluor 2 black plates; Cat # 7205; Thermolabsystems. • ATP: (Amersham Pharmacia Cat # 27-2056-01), 100 mM stock. • IGFR Lance Protocol (96-well format) • Procedure: • Reagents: • Kinase Buffer (10×): • 0.5 M Hepes, pH 7.5 rt • 0.1 M MgCl2 • Quench Buffer (to be added straight, 1:1, to r×n mix): • 50 mM Hepes, pH 7.5 rt • 50 mM EDTA • Lance Detection Buffer: • 20 mM Tris-HCl, pH 7.5 rt • 0.15 M NaCl-150 • 150 ug/ml BSA (Sigma Cat# A-7284) • Eu-labeled phosphotyrosine antibody PT66 (Perkin-Elmer): 1:4000 dilution of 200 μg/ml stock • Streptavidin-APC (Perkin Elmer): 1/250 (4 microgram/ml final) • ATP (Amersham Pharmacia cat #27-2056-01) 100 mM stock: Dilute to 1 mM (10×) in water. […] Transfer 12.5[…] of the kinase reaction to the antibody detection plate. Allow antibody to react for 1 h at rt in the dark. Then read in Victor with an excitation filter of 340 nm and an emission filter of 665 nm. • Compound additions: • When Example compounds are tested, they are added from a 10% DMSO/50 mM Hepes (pH 7.5) 10× stock. 5 microliters of compound in this buffer are added to the enzyme-peptide-buffer mix. After 10′ incubation at room temperature, ATP is added to start the reaction. A no ATP background control is included in the assay. • […] OF RESULTS: Data are analyzed as follows: % Inhibition={[Sample cpm−Bkg cpm]/[No cmpd cpm−Bkg cpm]}×100%. The biological activity of representative Examples of the invention is reported in Table VII as: 0.2 µM≦x≦10 µM or % inhibition@10 µM.

T1 sequence (P08069 999-1274 limits assumed): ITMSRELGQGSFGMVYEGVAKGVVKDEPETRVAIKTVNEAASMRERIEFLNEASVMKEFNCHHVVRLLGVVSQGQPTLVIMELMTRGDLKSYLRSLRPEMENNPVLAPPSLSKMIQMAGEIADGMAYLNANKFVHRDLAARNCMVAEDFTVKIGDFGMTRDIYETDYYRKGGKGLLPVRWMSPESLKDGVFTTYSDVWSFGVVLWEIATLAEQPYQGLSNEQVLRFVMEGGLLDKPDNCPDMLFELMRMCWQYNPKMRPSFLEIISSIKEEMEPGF

Consider `CC(=O)c1cccc(Nc2ccc3c(c2)/C(=C/Nc2ccc(N4CCN(C)CC4)cc2)C(=O)NC3=O)c1` [Example 881], for which the IC50 worked out at 361 nM.

In the case of `Cc1ccccc1Nc1ccc2c(c1)/C(=C/Nc1ccc(CN3CCCCC3)cc1)C(=O)NC2=O` [Example 882, 4-[(4-piperidin-1-ylmethyl-phenylamino)-methylene]-6-o-tolylamino-4H-isoquinoline-1,3-dione], the IC50 worked out at 4470 nM.

Consider `Nc1cccc(Nc2ccc3c(c2)/C(=C/Nc2ccc(CN4CCCCC4)cc2)C(=O)NC3=O)c1` [Example 883, (4Z)-6-[(3-aminophenyl)amino]-4-({[4-(piperidin-1-ylmethyl)phenyl]amino}methylene)isoquinoline-1,3(2H,4H)-dione], for which the inhibition at 10 µM was found to be 33%.

With `Cc1cccc(Nc2ccc3c(c2)/C(=C/Nc2ccc(CN4CCCCC4)cc2)C(=O)NC3=O)c1` [Example 884, (4Z)-6-[(3-methylphenyl)amino]-4-({[4-(piperidin-1-ylmethyl)phenyl]amino}methylene)isoquinoline-1,3(2H,4H)-dione], the inhibition at 10 µM is 20%.

`CC(=O)c1cccc(Nc2ccc3c(c2)/C(=C/Nc2ccc(CN4CCCCC4)cc2)C(=O)NC3=O)c1` [Example 885, (4Z)-6-[(3-acetylphenyl)amino]-4-({[4-(piperidin-1-ylmethyl)phenyl]amino}methylene)isoquinoline-1,3(2H,4H)-dione]: the IC50 was determined as 360 nM.

For `O=C1NC(=O)c2ccc(Nc3cccc(C(F)(F)F)c3)cc2/C1=C/Nc1ccc(CN2CCCCC2)cc1` [Example 886, (4Z)-4-({[4-(piperidin-1-ylmethyl)phenyl]amino}methylene)-6-{[3-(trifluoromethyl)phenyl]amino}isoquinoline-1,3(2H,4H)-dione], the inhibition at 10 µM was found to be 32%.

`O=C1NC(=O)c2ccc(Nc3ccccc3)cc2/C1=C/Nc1ccc(CN2CCCCC2)cc1` [Example 887, (4Z)-6-anilino-4-({[4-(piperidin-1-ylmethyl)phenyl]amino}methylene)isoquinoline-1,3(2H,4H)-dione]: the IC50 was determined as 208 nM.

`CN(C)c1ccc(Nc2ccc3c(c2)/C(=C/Nc2ccc(CN4CCCCC4)cc2)C(=O)NC3=O)cc1` [Example 888, (4Z)-6-{[4-(dimethylamino)phenyl]amino}-4-({[4-(piperidin-1-ylmethyl)phenyl]amino}methylene)isoquinoline-1,3(2H,4H)-dione]: the inhibition at 10 µM stood at 14%.

For `Cc1ccc(Nc2ccc3c(c2)/C(=C/Nc2ccc(CN4CCCCC4)cc2)C(=O)NC3=O)cc1` [Example 889, (4Z)-6-[(4-methylphenyl)amino]-4-({[4-(piperidin-1-ylmethyl)phenyl]amino}methylene)isoquinoline-1,3(2H,4H)-dione], the IC50 was 394 nM.

As to `O=C1NC(=O)c2ccc(Nc3ccc(Cl)cc3)cc2/C1=C/Nc1ccc(CN2CCCCC2)cc1` [Example 890, (4Z)-6-[(4-chlorophenyl)amino]-4-({[4-(piperidin-1-ylmethyl)phenyl]amino}methylene)isoquinoline-1,3(2H,4H)-dione], the inhibition at 10 µM was 47%.

As to `COc1ccccc1Nc1ccc2c(c1)/C(=C/Nc1ccc(CN3CCCCC3)cc1)C(=O)NC2=O` [Example 891], the IC50 came to 575 nM.

Regarding `COc1cccc(Nc2ccc3c(c2)/C(=C/Nc2ccc(CN4CCCCC4)cc2)C(=O)NC3=O)c1` [Example 892, (4Z)-6-[(3-methoxyphenyl)amino]-4-({[4-(piperidin-1-ylmethyl)phenyl]amino}methylene)isoquinoline-1,3(2H,4H)-dione], the IC50 turned out to be 954 nM.

With `N#Cc1cccc(Nc2ccc3c(c2)/C(=C/Nc2ccc(CN4CCCCC4)cc2)C(=O)NC3=O)c1` [Example 893, 3-{[(4Z)-1,3-dioxo-4-({[4-(piperidin-1-ylmethyl)phenyl]amino}methylene)-1,2,3,4-tetrahydroisoquinolin-6-yl]amino}benzonitrile], the IC50 was determined as 708 nM.
